Patent US10787452B2 (Vertex Pharmaceuticals Incorporated, priority 2012, dated 2020)

Tested on: HCT116 colorectal cancer cells
Test: Cisplatin sensitization assay (96 h cell viability MTS);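 further: compound concentration needed to lower the Cisplatin-alone IC50 by a set fold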
Type: cell-based
Details: 96 h MTS, compound plus Cisplatin
Method: Compounds can be screened for their ability to sensitize HCT116 colorectal cancer cells to Cisplatin using a 96 h cell viability (MTS) assay. […] Compounds and Cisplatin are then both added simultaneously to the cell media in 2-fold serial dilutions from a top final concentration of 10 μM as a full matrix of concentrations in a final cell volume of 200 μl, and the cells are then incubated at 37° C. in 5% CO2. After 96 h, 40 μl of MTS reagent (Promega G358a) is added to each well and the cells are incubated for 1 h at 37° C. in 5% CO2.

| Compound | Cisplatin Sensitization Assay |
| --- | --- |
| Nc1nn2cc(F)cnc2c1C(=O)Nc1cnccc1N1CCN(C2CCOC2)CC1 (racemic) [I-N-19, (R,S)-2-amino-6-fluoro-N-(4-(4-(tetrahydrofuran-3-yl)piperazin-1-yl)pyridin-3-yl)pyrazolo[1,5-a]pyrimidine-3-carboxamide] | +++ (Compounds with a Cisplatin sensitization value of <0.02 μM are marked with “+++.”) |
| N#CCc1cnc2c(C(=O)Nc3cnccc3OC3CCCNC3)c(N)nn2c1 (racemic) [I-O-2, (R,S)-2-amino-6-(cyanomethyl)-N-(4-(piperidin-3-yloxy)pyridin-3-yl)pyrazolo[1,5-a]pyrimidine-3-carboxamide] | ++ (Compounds with a Cisplatin sensitization value >0.02 μM but <0.2 μM are marked with “++.”) |
| Nc1nn2cc(F)cnc2c1C(=O)Nc1cnccc1OC1CN2CCC1CC2 (racemic) [I-O-6, (R,S)-2-amino-6-fluoro-N-(4-(quinuclidin-3-yloxy)pyridin-3-yl)pyrazolo[1,5-a]pyrimidine-3-carboxamide] | +++ (Compounds with a Cisplatin sensitization value of <0.02 μM are marked with “+++.”) |
| Nc1nn2cc(F)cnc2c1C(=O)Nc1cnccc1OC1CCOC1 (racemic) [I-O-15, (R,S)-2-amino-6-fluoro-N-(4-((tetrahydrofuran-3-yl)oxy)pyridin-3-yl)pyrazolo[1,5-a]pyrimidine-3-carboxamide] | +++ (Compounds with a Cisplatin sensitization value of <0.02 μM are marked with “+++.”) |
| CN1CCC(c2ccncc2NC(=O)c2c(N)nn3cc(F)cnc23)CC1 [I-C-1, 2-amino-6-fluoro-N-(4-(1-methylpiperidin-4-yl)pyridin-3-yl)pyrazolo[1,5-a]pyrimidine-3-carboxamide] | ++ (Compounds with a Cisplatin sensitization value >0.02 μM but <0.2 μM are marked with “++.”) |
| Cc1ccncc1NC(=O)c1c(N)nn2cc(Cl)cnc12 [I-C-2, 2-amino-6-chloro-N-(4-methylpyridin-3-yl)pyrazolo[1,5-a]pyrimidine-3-carboxamide] | ++ (Compounds with a Cisplatin sensitization value >0.02 μM but <0.2 μM are marked with “++.”) |
| Cc1ccncc1NC(=O)c1c(N)nn2cc(F)cnc12 [I-C-4, 2-amino-6-fluoro-N-(4-methylpyridin-3-yl)pyrazolo[1,5-a]pyrimidine-3-carboxamide] | ++ (Compounds with a Cisplatin sensitization value >0.02 μM but <0.2 μM are marked with “++.”) |
| Nc1nn2cc(F)cnc2c1C(=O)Nc1cnccc1-c1ccccc1 [I-C-5, 2-amino-6-fluoro-N-(4-phenylpyridin-3-yl)pyrazolo[1,5-a]pyrimidine-3-carboxamide] | +++ (Compounds with a Cisplatin sensitization value of <0.02 μM are marked with “+++.”) |
| N#CCc1cnc2c(C(=O)Nc3cnccc3-c3ccccc3)c(N)nn2c1 [I-C-6, 2-amino-6-(cyanomethyl)-N-(4-phenylpyridin-3-yl)pyrazolo[1,5-a]pyrimidine-3-carboxamide] | +++ (Compounds with a Cisplatin sensitization value of <0.02 μM are marked with “+++.”) |
| Nc1nn2cc(F)cnc2c1C(=O)Nc1cncc2c1CCNC2 [I-C-7, 2-amino-6-fluoro-N-(5,6,7,8-tetrahydro-2,7-naphthyridin-4-yl)pyrazolo[1,5-a]pyrimidine-3-carboxamide] | ++ (Compounds with a Cisplatin sensitization value >0.02 μM but <0.2 μM are marked with “++.”) |
| CN1CCc2c(cncc2NC(=O)c2c(N)nn3cc(F)cnc23)C1 [I-C-8, 2-amino-6-fluoro-N-(7-methyl-5,6,7,8-tetrahydro-2,7-naphthyridin-4-yl)pyrazolo[1,5-a]pyrimidine-3-carboxamide] | + (Compounds with a Cisplatin sensitization value >0.2 μM but <5 μM are marked with “+.”) |
| C[N+]1([O-])CCc2c(cncc2NC(=O)c2c(N)nn3cc(F)cnc23)C1 (stereo not drawn) [I-C-9, 5-(2-amino-6-fluoropyrazolo[1,5-a]pyrimidine-3-carboxamido)-2-methyl-1,2,3,4-tetrahydro-2,7-naphthyridine 2-oxide] | + (Compounds with a Cisplatin sensitization value >0.2 μM but <5 μM are marked with “+.”) |
| Nc1nn2cc(F)cnc2c1C(=O)Nc1cnccc1C1CCN(C2COC2)CC1 [I-C-10, 2-amino-6-fluoro-N-(4-(1-(oxetan-3-yl)piperidin-4-yl)pyridin-3-yl)pyrazolo[1,5-a]pyrimidine-3-carboxamide] | +++ (Compounds with a Cisplatin sensitization value of <0.02 μM are marked with “+++.”) |
| Nc1nn2cc(Cl)cnc2c1C(=O)Nc1cnccc1C1CCN(C2COC2)CC1 [I-C-11, 2-amino-6-chloro-N-(4-(1-(oxetan-3-yl)piperidin-4-yl)pyridin-3-yl)pyrazolo[1,5-a]pyrimidine-3-carboxamide] | +++ (Compounds with a Cisplatin sensitization value of <0.02 μM are marked with “+++.”) |
| Nc1nn2cc(F)cnc2c1C(=O)Nc1cncc(F)c1C1=CCN(C2COC2)CC1 [I-C-12, 2-amino-6-fluoro-N-(5-fluoro-1′-(oxetan-3-yl)-1′,2′,3′,6′-tetrahydro-[4,4′-bipyridin]-3-yl)pyrazolo[1,5-a]pyrimidine-3-carboxamide] | +++ (Compounds with a Cisplatin sensitization value of <0.02 μM are marked with “+++.”) |
| Nc1nn2cc(F)cnc2c1C(=O)Nc1cncc(F)c1C1CCN(C2COC2)CC1 [I-C-13, 2-amino-6-fluoro-N-(5-fluoro-4-(1-(oxetan-3-yl)piperidin-4-yl)pyridin-3-yl)pyrazolo[1,5-a]pyrimidine-3-carboxamide] | ++ (Compounds with a Cisplatin sensitization value >0.02 μM but <0.2 μM are marked with “++.”) |
| CN1CCC(c2c(F)cncc2NC(=O)c2c(N)nn3cc(F)cnc23)CC1 [I-C-14, 2-amino-6-fluoro-N-(5-fluoro-4-(1-methylpiperidin-4-yl)pyridin-3-yl)pyrazolo[1,5-a]pyrimidine-3-carboxamide] | + (Compounds with a Cisplatin sensitization value >0.2 μM but <5 μM are marked with “+.”) |
| Nc1nn2cc(F)cnc2c1C(=O)Nc1cnccc1-c1cccnc1 [I-C-15, N-([3,4′-bipyridin]-3′-yl)-2-amino-6-fluoropyrazolo[1,5-a]pyrimidine-3-carboxamide] | ++ (Compounds with a Cisplatin sensitization value >0.02 μM but <0.2 μM are marked with “++.”) |
| CN1CCC(C(=O)N2CCC(c3ccncc3NC(=O)c3c(N)nn4cc(F)cnc34)CC2)CC1 [I-C-16, 2-amino-6-fluoro-N-(4-(1-(1-methylpiperidine-4-carbonyl)piperidin-4-yl)pyridin-3-yl)pyrazolo[1,5-a]pyrimidine-3-carboxamide] | + (Compounds with a Cisplatin sensitization value >0.2 μM but <5 μM are marked with “+.”) |
| CN1CCN(C(=O)N2CCC(c3ccncc3NC(=O)c3c(N)nn4cc(F)cnc34)CC2)CC1 [I-C-17, 2-amino-6-fluoro-N-(4-(1-(4-methylpiperazine-1-carbonyl)piperidin-4-yl)pyridin-3-yl)pyrazolo[1,5-a]pyrimidine-3-carboxamide] | ++ (Compounds with a Cisplatin sensitization value >0.02 μM but <0.2 μM are marked with “++.”) |
| Nc1nn2cc(F)cnc2c1C(=O)Nc1cnccc1C1CCN(C(=O)C23CCN(CC2)CC3)CC1 [I-C-18, 2-amino-6-fluoro-N-(4-(1-(quinuclidine-4-carbonyl)piperidin-4-yl)pyridin-3-yl)pyrazolo[1,5-a]pyrimidine-3-carboxamide] | + (Compounds with a Cisplatin sensitization value >0.2 μM but <5 μM are marked with “+.”) |
| CN1CCN(C(=O)c2ccc(-c3ccncc3NC(=O)c3c(N)nn4cc(F)cnc34)cn2)CC1 [I-C-19, 2-amino-6-fluoro-N-(6-(4-methylpiperazine-1-carbonyl)-[3,4′-bipyridin]-3′-yl)pyrazolo[1,5-a]pyrimidine-3-carboxamide] | ++ (Compounds with a Cisplatin sensitization value >0.02 μM but <0.2 μM are marked with “++.”) |
| Cc1ncccc1-c1ccncc1NC(=O)c1c(N)nn2cc(F)cnc12 [I-C-20, 2-amino-6-fluoro-N-(2-methyl-[3,4′-bipyridin]-3′-yl)pyrazolo[1,5-a]pyrimidine-3-carboxamide] | +++ (Compounds with a Cisplatin sensitization value of <0.02 μM are marked with “+++.”) |
| CN1CCN(c2ccc(-c3ccncc3NC(=O)c3c(N)nn4cc(F)cnc34)cn2)CC1 [I-C-21, 2-amino-6-fluoro-N-(6-(4-methylpiperazin-1-yl)-[3,4′-bipyridin]-3′-yl)pyrazolo[1,5-a]pyrimidine-3-carboxamide] | +++ (Compounds with a Cisplatin sensitization value of <0.02 μM are marked with “+++.”) |
| Cc1ccc(-c2ccncc2NC(=O)c2c(N)nn3cc(F)cnc23)cn1 [I-C-22, 2-amino-6-fluoro-N-(6-methyl-[3,4′-bipyridin]-3′-yl)pyrazolo[1,5-a]pyrimidine-3-carboxamide] | ++ (Compounds with a Cisplatin sensitization value >0.02 μM but <0.2 μM are marked with “++.”) |
| CN1CCC(c2ccncc2NC(=O)c2c(N)nn3cc(C(C)(C)C#N)cnc23)CC1 [I-C-23, 2-amino-6-(2-cyanopropan-2-yl)-N-(4-(1-methylpiperidin-4-yl)pyridin-3-yl)pyrazolo[1,5-a]pyrimidine-3-carboxamide] | + (Compounds with a Cisplatin sensitization value >0.2 μM but <5 μM are marked with “+.”) |
| Nc1nn2cc(F)cnc2c1C(=O)Nc1cnccc1-c1ccncc1 [I-C-24, N-([4,4′-bipyridin]-3-yl)-2-amino-6-fluoropyrazolo[1,5-a]pyrimidine-3-carboxamide] | +++ (Compounds with a Cisplatin sensitization value of <0.02 μM are marked with “+++.”) |
